# Source: patent publication US20220016092A1, “METHODS FOR TREATING SYMPTOMS AND DISORDERS ASSOCIATED WITH LYSOSOMAL STORAGE DISEASES” (GENZYME CORPORATION, priority 2019, published 2022)
# Assays:
# [1] = test system: GM3 expression in C32 human melanoma cells; experiment: GM3 fluorescent-linked immunosorbent assay (FLISA), C32 cells; type: cell-based; details: 48 hours
# From the text: Inhibition of glucosylceramide synthase activity can be measured with one or more assays. A first assay is a microsomal assay that directly measures the conversion of ceramide to glucosylceramide by HPLC. Microsomes are a source of glucosylceramide synthase activity in the microsomal assay. A second assay is a cell based, phenotypic assay that monitors cell surface expression of the downstream lipid GM3 by antibody mediated immunofluorescence. Specific protocols are provided below.
# This is a phenotypic assay that measures GM3 expression in B16 mouse melanoma or C32 human melanoma cells following treatment with test compounds. Cell surface GM3 expression is determined by antibody mediated fluorescence.
# Compounds are diluted in media and plated in 384 well plates in DMSO. B16 and C32 cells are assayed at densities of 20,000 cells/ml and 62,500 cells/ml, respectively, per well. Each titration curve contains 10 points that are assayed in duplicate on each test run. The plates are incubated for 48 hours at 37° C., 5% CO2, and are then washed once with TBS. Anti-GM3 antibody is added to each well and the plates are then incubated for an additional one hour at room temperature. Plates are subsequently washed twice and incubated for an additional hour with the labeled secondary antibody. Following the final incubation, the plates are washed twice and the fluorescence at λex=D640/20 nm and λem=657 nm is detected on a fluorescent reader.
# The results of the microsomal assays are expressed as “GCS IC50”, which represents the concentration of the compound causing 50% inhibition of glucosylceramide synthase activity. The results of the cell-based assays are expressed as “GM3 B16 IC50” or “GM3 C32 IC50” for the B16 assay and the C32 assay, respectively. These values represent the concentration of the compound causing 50% inhibition of GM3 expression on the cell surface.
# [2] = test system: GL-3, lyso-GL-3, GL-1 and GM3; experiment: Clinical study in Fabry disease patients: plasma and urine glycosphingolipids; type: in vivo, human; details: 15 mg/day oral
# Description: (§1) A three-year open-label investigation of Compound 2 in young classic Fabry disease patients was conducted in order to evaluate the long-term safety, pharmacodynamics and exploratory efficacy of Compound 2 in adult male Fabry patients. Eleven subjects enrolled in the study, and seven subjects completed all aspects of the study. All subjects were males diagnosed with classic Fabry disease confirmed by genotype and residual alpha-galactosidase activity below detection levels (9 of the 11 had nonsense mutation in the GLA gene). All subjects had lyso-GL3 levels in plasma of at least 65 ng/mL and had no prior Fabry disease-specific treatment. The median age of subject was 24 years (range 19-37).
# Each sample was scored independently by 3 pathologists for the presence of GL-3 inclusions on a four-point scale, and rated as 0 (no/trace), 1 (mild), 2 (moderate), or 3 (severe) according to Eng et al., N. Engl. J. Med. 345:9-16 (2001). A single score per patient per time point was derived by taking the score rated by the majority of the three pathologists. If a majority score could not be derived, then the median score was used (resulting in some fractional scores). […] Pain scores and abdominal symptoms were analyzed at baseline and weeks 12, 26, 52, 104 and 156 using the SF-36 scoring protocol. […]
# [3] = test system: GL-3 inclusions in skin cells; experiment: Clinical study in Fabry disease patients: skin GL-3 inclusion score by light microscopy; type: in vivo, human
# Description: as §1
# Each sample was scored independently by 3 pathologists for the presence of GL-3 inclusions on a four-point scale, and rated as 0 (no/trace), 1 (mild), 2 (moderate), or 3 (severe) according to Eng et al., N. Engl. J. Med. 345:9-16 (2001). A single score per patient per time point was derived by taking the score rated by the majority of the three pathologists. If a majority score could not be derived, then the median score was used (resulting in some fractional scores). Plasma samples were also analyzed for GL-3, lyso-GL-3, GL-1 and GM3 at baseline and weeks 12, 26, 52 and 156. Pain scores and abdominal symptoms were analyzed at baseline and weeks 12, 26, 52, 104 and 156 using the SF-36 scoring protocol.
# [4] = Fabry patients, 15 mg/day oral, by week 156
# [5] = Fabry, 15 mg/day, Endothelial Cells, Deep Vessels, 12 weeks
# [6] = Fabry, 15 mg/day, Endothelial Cells, Deep Vessels, 26 weeks
# [7] = Fabry, 15 mg/day, Endothelial Cells, Deep Vessels, 52 weeks
# [8] = Fabry, 15 mg/day, Endothelial Cells, Deep Vessels, 156 weeks
# [9] = Fabry, 15 mg/day, Endothelial Cells, Superficial Vessels, 12 weeks
# [10] = Fabry, 15 mg/day, Endothelial Cells, Superficial Vessels, 26 weeks
# [11] = Fabry, 15 mg/day, Endothelial Cells, Superficial Vessels, 52 weeks
# [12] = Fabry, 15 mg/day, Endothelial Cells, Superficial Vessels, 156 weeks
# [13] = Fabry, 15 mg/day, Perineurium Cells, 12 weeks
# [14] = Fabry, 15 mg/day, Perineurium Cells, 26 weeks
# [15] = Fabry, 15 mg/day, Perineurium Cells, 52 weeks
# [16] = Fabry, 15 mg/day, Perineurium Cells, 156 weeks
# [17] = Fabry, 15 mg/day, Smooth Muscle Cells, Deep Vessels, 12 weeks
# [18] = Fabry, 15 mg/day, Smooth Muscle Cells, Deep Vessels, 26 weeks
# [19] = Fabry, 15 mg/day, Smooth Muscle Cells, Deep Vessels, 52 weeks
# [20] = Fabry, 15 mg/day, Smooth Muscle Cells, Deep Vessels, 156 weeks
smiles,measurement,setting,value
"CC(C)(NC(=O)O[C@@H]1CN2CCC1CC2)c1csc(-c2ccc(F)cc2)n1 [Compound 2, (S)-quinuclidin-3-yl 2-(2-(4-fluorophenyl)thiazol-4-yl)propan-2-ylcarbamate]",IC50,[1],9.6 nM
same,"Urine GL-3 (mg per mmol urine creatinine), change from baseline",[2]; 26 weeks (n = 8),-0.25 mg/mmol
same,"Plasma GL-1, change from baseline",[2]; 26 weeks (n = 9),-3.26 µg/mL
same,"Plasma GL-3, change from baseline",[2]; 26 weeks (n = 9),-3.62 µg/mL
same,"Plasma GM3, change from baseline",[2]; 26 weeks (n = 9),-10.77 µg/mL
same,"Plasma lyso-GL-3, change from baseline",[2]; 26 weeks (n = 9),-30.99 ng/mL
same,"Plasma GL-1, change from baseline",[2]; 52 weeks (n = 7),-3.58 µg/mL
same,"Plasma GL-3, change from baseline",[2]; 52 weeks (n = 7),-5.06 µg/mL
same,"Plasma GM3, change from baseline",[2]; 52 weeks (n = 7),-8.84 µg/mL
same,"Plasma lyso-GL-3, change from baseline",[2]; 52 weeks (n = 7),-37.10 ng/mL
same,"Urine GL-3 (mg per mmol urine creatinine), change from baseline",[2]; 52 weeks (n = 7),-0.20 mg/mmol
same,"Plasma GL-1, change from baseline",[2]; 104 weeks (n = 7),-3.70 µg/mL
same,"Plasma GL-3, change from baseline",[2]; 104 weeks (n = 7),-6.32 µg/mL
same,"Plasma GM3, change from baseline",[2]; 104 weeks (n = 7),-9.92 µg/mL
same,"Plasma lyso-GL-3, change from baseline",[2]; 104 weeks (n = 7),-39.84 ng/mL
same,"Urine GL-3 (mg per mmol urine creatinine), change from baseline",[2]; 104 weeks (n = 7),-0.18 mg/mmol
same,"Plasma GL-1, change from baseline",[2]; 156 weeks (n = 7),-3.23 µg/mL
same,"Plasma GL-3, change from baseline",[2]; 156 weeks (n = 7),-6.97 µg/mL
same,"Plasma GM3, change from baseline",[2]; 156 weeks (n = 7),-8.12 µg/mL
same,"Plasma lyso-GL-3, change from baseline",[2]; 156 weeks (n = 7),-48.13 ng/mL
same,"Urine GL-3 (mg per mmol urine creatinine), change from baseline",[2]; 156 weeks (n = 7),-0.18 mg/mmol
same,Plasma GL-3 levels,[2]; after 156 weeks,1.90 µg/mL
same,Plasma GL-3 reduction compared to agalsidase beta,[2]; at 104 weeks (p=0.0351) and 156 weeks (p=0.0081),significantly greater
same,Drop in mean plasma GL-1 levels,[2]; over the 156-week study,69%
same,Drop in mean plasma GL-3 levels,[2]; over the 156-week study,77%
same,Drop in mean plasma GM3 levels,[2]; over the 156-week study,60%
same,Drop in mean plasma lyso-GL3 levels,[2]; over the 156-week study,52%
same,Patients with a 1-point reduction in skin GL-3 score,[3]; [4],five
same,Patients with complete clearance of GL-3 inclusions,[3]; [4],two
same,Patients with no change in skin GL-3 score,[3]; [4],one
same,Number of patients: skin GL-3 Score 1 unchanged,[3]; [5],1/9 (11%)
same,Number of patients: skin GL-3 Score 2 dropped to 1,[3]; [5],2/9 (22%)
same,Number of patients: skin GL-3 Score 2 unchanged,[3]; [5],6/9 (67%)
same,Number of patients: skin GL-3 Score 1 unchanged,[3]; [6],1/9 (11%)
same,Number of patients: skin GL-3 Score 2 dropped to 1,[3]; [6],2/9 (22%)
same,Number of patients: skin GL-3 Score 2 unchanged,[3]; [6],6/9 (67%)
same,Number of patients: skin GL-3 Score 2 dropped to 1,[3]; [7],3/6 (50%)
same,Number of patients: skin GL-3 Score 2 dropped to 1.5,[3]; [7],1/6 (17%)
same,Number of patients: skin GL-3 Score 2 unchanged,[3]; [7],2/6 (33%)
same,Number of patients: skin GL-3 Score 1 unchanged,[3]; [8],1/6 (17%)
same,Number of patients: skin GL-3 Score 2 dropped to 0.5,[3]; [8],1/6 (17%)
same,Number of patients: skin GL-3 Score 2 dropped to 1,[3]; [8],3/6 (50%)
same,Number of patients: skin GL-3 Score 2 unchanged,[3]; [8],1/6 (17%)
same,Number of patients: skin GL-3 Score 1 raised to 2,[3]; [9],1/9 (11%)
same,Number of patients: skin GL-3 Score 1 unchanged,[3]; [9],4/9 (44%)
same,Number of patients: skin GL-3 Score 2 dropped to 1,[3]; [9],3/9 (33%)
same,Number of patients: skin GL-3 Score 2 unchanged,[3]; [9],1/9 (11%)
same,Number of patients: skin GL-3 Score 1 raised to 2,[3]; [10],1/9 (11%)
same,Number of patients: skin GL-3 Score 1 unchanged,[3]; [10],4/9 (44%)
same,Number of patients: skin GL-3 Score 2 dropped to 1,[3]; [10],3/9 (33%)
same,Number of patients: skin GL-3 Score 2 unchanged,[3]; [10],1/9 (11%)
same,Number of patients: skin GL-3 Score 1 unchanged,[3]; [11],3/6 (50%)
same,Number of patients: skin GL-3 Score 2 dropped to 1,[3]; [11],2/6 (33%)
same,Number of patients: skin GL-3 Score 2 unchanged,[3]; [11],1/6 (17%)
same,Number of patients: skin GL-3 Score 1 dropped to 0,[3]; [12],2/6 (33%)
same,Number of patients: skin GL-3 Score 1 unchanged,[3]; [12],1/6 (17%)
same,Number of patients: skin GL-3 Score 2 dropped to 1,[3]; [12],3/6 (50%)
same,Number of patients: skin GL-3 Score 1 raised to 2,[3]; [13],1/9 (11%)
same,Number of patients: skin GL-3 Score 2 unchanged,[3]; [13],8/9 (89%)
same,Number of patients: skin GL-3 Score 1 raised to 2,[3]; [14],1/9 (11%)
same,Number of patients: skin GL-3 Score 2 unchanged,[3]; [14],8/9 (89%)
same,Number of patients: skin GL-3 Score 1 raised to 2,[3]; [15],1/6 (17%)
same,Number of patients: skin GL-3 Score 2 dropped to 1,[3]; [15],1/6 (17%)
same,Number of patients: skin GL-3 Score 2 dropped to 1.5,[3]; [15],1/6 (17%)
same,Number of patients: skin GL-3 Score 2 unchanged,[3]; [15],3/6 (50%)
same,Number of patients: skin GL-3 Score 1 unchanged,[3]; [16],1/6 (17%)
same,Number of patients: skin GL-3 Score 2 dropped to 1.5,[3]; [16],1/6 (17%)
same,Number of patients: skin GL-3 Score 2 unchanged,[3]; [16],4/6 (67%)
same,Number of patients: skin GL-3 Score 1.5 raised to 2,[3]; [17],2/9 (22%)
same,Number of patients: skin GL-3 Score 2 unchanged,[3]; [17],7/9 (78%)
same,Number of patients: skin GL-3 Score 1.5 unchanged,[3]; [18],2/9 (22%)
same,Number of patients: skin GL-3 Score 2 unchanged,[3]; [18],7/9 (78%)
same,Number of patients: skin GL-3 Score 1.5 raised to 2,[3]; [19],1/5 (20%)
same,Number of patients: skin GL-3 Score 2 unchanged,[3]; [19],4/5 (80%)
same,Number of patients: skin GL-3 Score 1.5 raised to 2,[3]; [20],1/6 (17%)
same,Number of patients: skin GL-3 Score 2 dropped to 1,[3]; [20],1/6 (17%)
same,Number of patients: skin GL-3 Score 2 dropped to 1.5,[3]; [20],1/6 (17%)
same,Number of patients: skin GL-3 Score 2 unchanged,[3]; [20],3/6 (50%)
